Experimental data taken from article PMC9313812, “The Pseudo‐Natural Product Rhonin Targets RHOGDI” (Angewandte Chemie (International Ed. in English), 2022).
Where two headings read alike, the source gives them in different places.

Assays:
C3H/10T1/2 cells = assay: Osteoblast differentiation assay (ODA): purmorphamine-induced osteogenesis, alkaline phosphatase luminescence readout; format: cell-based, mouse; design: key to Osteogenesis IC50: Compounds are marked inactive when no inhibition was observed at the highest test concentration of 30 µM; details: for IC50 / Osteogenesis IC50: 1.5 µM purmorphamine, 96 h, n=3; for Inhibition of Hh-/purmorphamine-induced osteogenesis (in words): C3H/10T1/2 cells
Method: Supplementary Table S7. Inhibition of osteogenesis assay. C3H10T1/2 cells were incubated with 1.5 µM purmorphamine and compounds or DMSO as a control for 96 h. The activity of alkaline phosphatase was assessed by means of a luminescence readout. Values for cells, which were treated with DMSO and purmorphamine, were set to 100% and data were measured in […]
concentration of 30 µM. All data are mean values of three independent experiments (n = 3) ± […]
Compound Osteogenesis IC50
(1 picture or pasted object on this page, not shown here)
NIH/3T3 cells were obtained from DSMZ, Germany (DSMZ ACC 59) and were cultured in DMEM (high glucose) supplemented with 10% heat-inactivated FCS, 2 mM L -glutamine and 1 mM sodium pyruvate. Shh -LIGHT2 cells (NIH/3T3 cells stably transfected with a Gli-responsive firefly luciferase reporter plasmid and a pRL-TK constituitive Renilla luciferase expression vector)[4] were cultured in the same culturing medium supplemented with 400 μg ml −1 G418 and 150 μg ml −1 Zeocin as selecting agents. The murine osteoblasts C3H/10T1/2 (ATCC CCL-226) were obtained from ATCC, USA and were cultured in DMEM (high glucose) supplemented with 10% heat-inactivated FCS, 6 mM L -glutamine, 1 mM sodium pyruvate. HEK293T cells (ATCC, England) were grown in DMEM containing 10% FBS, 100 U ml −1 penicillin and 0.1 mg ml −1 streptomycin. All cell lines were maintained at 37 °C and 5% CO 2 in a humidified atmosphere. All the cell lines were regularly assayed for mycoplasma and were confirmed to be mycoplasma-free. Transfection of DNA constructs and siRNAs were performed using FuGENE HD (Promega), Lipofectamine® LTX (Invitrogen) and DharmaFECT™ (GE Healthcare) transfection reagent according to the manufacturer’s […]
Osteoblast differentiation assay
The osteoblast differentiation assay was performed by the Compound Management and Screening Center (COMAS) in Dortmund, Germany. C3H/10T1/2 cells were seeded (800 per well) in white 384-well plates or (6000 per well) in 96-well plates. After incubation for 16 h, compounds or DMSO were added to the cells using the acoustic nanoliter dispenser ECHO 520 (Labcyte) and osteogenesis was induced with 1.5 µM purmorphamine. Plates were incubated for 96 h at 37 °C and 5% CO2. Alkaline phosphatase activity was measured by replacing the medium with osteogenesis-lysis buffer (lysis buffer: 100 mM Tris pH 9.5, 250 mM NaCl, 25 mM MgCl2, 1% Triton X-100, sterile filtered) containing 1:100 chemiluminescent substrate CDP-Star® (Promega, 384-well plates: 35 µL, 96-well plates: 50 µL) for one hour in the dark at 25 °C. In 384-well plates, the luminescence was monitored using the Paradigm plate reader (Molecular Devices, USA), whereas Spark plate reader (Tecan, Austria) was used to measure luminescence in 96-well plates. Dose-response analyses were performed for all hit compounds […]
using a three-fold dilution series starting from a concentration of 30 μM. Half-maximal inhibitory concentrations (IC50) were calculated using the Quattro software suite (Quattro Research, Planegg, Germany) or GraphPad Prism 7 (GraphPad, USA).
The effect of test compounds on the viability of C3H/10T1/2 cells was determined by CellTiter-Glo Luminescence cell viability assay (Promega). Cells were treated as described for the osteogenesis assay prior to addition of the CellTiter-Glo® reagent according to manufacturer’s protocol. Compounds causing at least a 50% reduction in the osteogenesis assay and retaining cell viability of at least 80% were considered as hits. Dose-response analyses were performed for all hit compounds using a three-fold dilution series starting from a concentration of 30 μM. Half-maximal inhibitory concentrations (IC50) were calculated using the Quattro software suite (Quattro Research GmbH). […]

Shh-LIGHT2 cells = assay: GLI-dependent reporter gene assay (RGA); format: cell-based; details: Shh Light2; Figure 2a; mean of three independent experiments
Method: using a three-fold dilution series starting from a concentration of 30 μM. Half-maximal inhibitory concentrations (IC50) were calculated using the Quattro software suite (Quattro Research, Planegg, Germany) or GraphPad Prism 7 (GraphPad, USA). […]
GLI-dependent reporter gene assay
Shh-LIGHT2 cells were seeded (2.5×10^4 per well) in 96-well plates. After incubation for 16 h, medium was replaced by low serum-containing medium (0.5% FCS) supplemented with 1.5 μM purmorphamine and various concentrations of the compounds or DMSO as a control and cells were incubated for 48 h. […]

[1] = Table S13, Rac, Cdc42 and ROCK inhibitors, read-out: Osteogenesis IC50 ± SD
[2] = Mus musculus, C3H 10T1/2, Table S13, Rac, Cdc42 and ROCK inhibitors, read-out: Osteogenesis IC50 ± SD
[3] = Mus musculus, C3H 10T1/2, Table S7, mean ± SD, highest test concentration 30 µM, read-out: Osteogenesis IC50
[4] = Table S7, mean ± SD, highest test concentration 30 µM

| Osteogenesis IC50 (C3H/10T1/2 cells; [4]) | Structure (SMILES) | other results |
| --- | --- | --- |
|  | Cc1cncc2cccc(S(=O)(=O)N3CCCNC[C@@H]3C)c12 [H-1152, reference compound] | IC50 (C3H/10T1/2 cells; [1]): 2870 nM |
|  | COc1cc(C2=NC(C)=C(C(=O)Nc3ccc4[nH]ncc4c3)C(c3ccc(Cl)cc3F)N2)ccn1 (stereo not shown) [GSK534911A, reference compound] | IC50 (C3H/10T1/2 cells; [2]): 1550 ± 500 nM |
|  | COC(=O)C1(C=CC(=O)c2ccccc2)N=C(c2ccc(Br)cc2)C2C(=O)N(C)C(=O)C21 (stereo not shown) [7g] | IC50 (Shh-LIGHT2 cells): 6150 nM; IC50 (C3H/10T1/2 cells; [3]): 3130 ± 200 nM |
|  | Cc1cc(C)nc(NS(=O)(=O)c2ccc(NC(=S)NC(=O)COc3ccc(Br)cc3Cl)cc2)n1 [ZCL278, reference compound] | Osteogenesis, activity at 2 µM (C3H/10T1/2 cells; Table S13, 2 µM, DMSO + purmorphamine = 100%): 75% |
| inactive | COC(=O)[C@@]1([C@H](CC(=O)c2ccc(Br)cc2)c2ccc(C(=O)NCCOCCOCCNC(=O)OC(C)(C)C)cc2)N=C(c2ccc(Br)cc2)[C@H]2C(=O)N(C)C(=O)[C@H]21 [S10b] |  |
| inactive | COC(=O)C1(C2CC(=O)N(c3ccccc3)C2=O)N=C(c2ccc(C(C)(C)C)cc2)C2C(=O)N(C)C(=O)C21 (stereo not shown) [6d] |  |
| inactive | COC(=O)C=C(C(=O)OC)C1(C(=O)OC)N=C(c2ccc(Br)cc2)C2C(=O)N(c3ccccc3)C(=O)C21 (stereo not shown) [7i] |  |
|  | COC(=O)C1(CCC(C)=O)N=C(c2ccc(Br)cc2)C2C(=O)N(C)C(=O)C21 (stereo not shown) [7c] | IC50 (Shh-LIGHT2 cells): 8000 nM; Inhibition of Hh-/purmorphamine-induced osteogenesis (in words) (C3H/10T1/2 cells): active; IC50 (C3H/10T1/2 cells; [3]): 6200 ± 1300 nM |
|  | CCn1c2ccccc2c2cc(Nc3ccnc(NCCCN4CCOCC4)n3)ccc21 [EHop-016, reference compound] | IC50 (C3H/10T1/2 cells; [1]): 881 ± 80 nM |
| inactive | COC(=O)C1(CCC(C)=O)N=C(c2ccc(Br)cc2)C2C(=O)N(c3ccccc3)C(=O)C21 (stereo not shown) [7f] | Inhibition of Hh-/purmorphamine-induced osteogenesis (in words) (C3H/10T1/2 cells): activity was lost |
| inactive | COC(=O)C1(C2CC(=O)N(c3ccccc3)C2=O)N=C(c2ccc(F)cc2)C2C(=O)N(C)C(=O)C21 (stereo not shown) [6c] |  |
| inactive | COC(=O)C1(C2CC(=O)N(c3ccccc3)C2=O)N=C(c2cccc(OC)c2)C2C(=O)N(C)C(=O)C21 (stereo not shown) [6e] |  |
|  | COC(=O)C1(CCC(=O)C=Cc2ccccc2)N=C(c2ccc(Br)cc2)C2C(=O)N(C)C(=O)C21 (stereo not shown) [7e] | IC50 (Shh-LIGHT2 cells): 4240 nM; IC50 (C3H/10T1/2 cells; [3]): 2810 ± 400 nM |
| inactive | COC(=O)C=C(C(=O)OC)C1(C(=O)OC)N=C(c2ccc(Br)cc2)C2C(=O)N(C)C(=O)C21 (stereo not shown) [7h] |  |
|  | CN(C)CCOc1cc(-c2cn[nH]c2)ccc1NC(=O)C1COc2ccccc2O1 (stereo not shown) [SR-3677, reference compound] | IC50 (C3H/10T1/2 cells; [2]): 1720 ± 100 nM |
|  | O=c1cc(CN2CCOCC2)occ1OCCCCCSc1ccnc2cc(C(F)(F)F)ccc12 [EHT 1864, reference compound] | IC50 (C3H/10T1/2 cells; [1]): > 2000 nM |
| inactive | COC(=O)C1(C2CC(=O)N(c3ccccc3)C2=O)N=C(c2ccc(Br)cc2)C2C(=O)N(C)C(=O)C21 (stereo not shown) [6a] |  |
| inactive | COC(=O)C1(C(CC(=O)c2ccc(Br)cc2)c2ccccc2)N=C(c2ccc(Br)cc2)C2C(=O)N(C)C(=O)C21 (stereo not shown) [7b] | Inhibition of Hh-/purmorphamine-induced osteogenesis (in words) (C3H/10T1/2 cells): abolished activity |
| inactive | COC(=O)C1(C2CC(=O)N(c3ccccc3)C2=O)N=C(c2ccc(C(F)(F)F)cc2)C2C(=O)N(C)C(=O)C21 (stereo not shown) [6b] |  |

| Structure (SMILES) | Osteogenesis IC50 (C3H/10T1/2 cells; [4]) | other results |
| --- | --- | --- |
| COC(=O)C12NC(c3ccc(Br)cc3)(C3C(=O)N(C)C(=O)C31)C1C(=O)N(c3ccccc3)C(=O)C12 (stereo not shown) [5a] | inactive |  |
| COC(=O)C12NC(c3ccc(C)cc3)(C3C(=O)N(C)C(=O)C31)C1C(=O)N(c3ccccc3)C(=O)C12 (stereo not shown) [5b] | inactive |  |
| COC(=O)C12NC(c3ccc(Cl)cc3)(C3C(=O)N(C)C(=O)C31)C1C(=O)N(c3ccccc3)C(=O)C12 (stereo not shown) [5d] | inactive |  |
| COC(=O)C12NC(c3ccc(Br)cc3)(C3C(=O)N(c4ccccc4)C(=O)C31)C1C(=O)N(C3CCCCC3)C(=O)C12 (stereo not shown) [5f] | inactive |  |
| CCCN1C(=O)C2C(C1=O)C1(c3ccc(Br)cc3)NC2(C(=O)OC)C2C(=O)N(c3ccccc3)C(=O)C21 (stereo not shown) [5e] | inactive |  |
| COC(=O)c1ccc(C23NC(C(=O)OC)(C4C(=O)N(C)C(=O)C42)C2C(=O)N(c4ccccc4)C(=O)C23)cc1 (stereo not shown) [5c] | inactive |  |
